# What was measured:
# CT26 syngeneic tumors = experiment: Liver metastases in syngenic murine CT26 CRC model (orthotopic tumors); format: in vivo, mice
# Method: The combinatorial activity of regorafenib and anti-mouse PD-1 antibody (RMP1-14, Peng et al., Cancer Res., (2012) 72(20), 5209-5218) was investigated in a syngenic murine CT26 CRC model
# CT26 syngeneic tumors were grown orthotopically in mice (Abou-Elkacem et al., Mol Cancer Ther. 2013 July; 12(7):1322-31) and treated with regorafenib and/or anti-mouse PD-1 antibody (RMP1-14) according to the following regimens:
# a) regorafenib alone at a dose of 30 mg/kg per day once daily for 10 days as a PluronicF68/PEG400/Propylenglycol/water (12/34/34/20) po (per oral) formulation using the formulation vehicle alone as control or in a combination with an unspecific control antibody given intraperitoneally (i.p.) at a dose of 20 mg/kg in PBS every third day. b) anti-mouse PD-1 antibody (RMP1-14) alone dosed at 20 mg/kg every third day for four times as a PBS i.p. formulation and an unspecific antibody was used as control c) in combination, regorafenib at a dose of 20 mg/kg per day once daily for 10 days as a PluronicF68/PEG400/Propylenglycol/water (/12/34/34/20) p.o. formulation and anti-mouse PD-1 antibody (RMP1-14) dosed at 20 mg/kg every third day for four times as a PBS i.p. formulation,
# Mice were sacrificed at the end of treatment or at the end of the observation period and livers were screened macroscopically for metastases on their surface. The number of mice with liver metastases was then related to the total number of mice in the respective study arm.
# MC38 syngeneic tumors = experiment: Antitumor activity in syngenic murine MC38 CRC model (subcutaneous tumors); format: in vivo, mice
# Method: The combinatorial activity of regorafenib and anti-mouse PD-1 antibody (RMP1-14, Peng et al., Cancer Res., (2012) 72(20), 5209-5218) was investigated in a syngenic murine MC38 CRC model
# MC38 syngeneic tumors were grown subcutaneously in mice and treated with regorafenib and/or anti-mouse PD-1 antibody (RMP1-14) according to the following regimens: […]
# Control animals were treated concomitantly with the regorafenib vehicle (PluronicF68/PEG400/Propylenglycol (15/42,5/42,5+20% aqua)) and a non-binding isotype control antibody (rat IgG2a, clone 2A3). Tumor growth was monitored by caliper measurement and the tumor area was calculated using the formula a×b where a and b are the long and short diameters of the tumor, respectively. Tumor weights were measured after completion of the study. Tumor vs control (T/C) was calculated using vehicle treated animals as reference.
# [1] = d 14 p.i., after treatment, single agent
# [2] = d 25 p.i., observation period after treatment stop at d 14, regorafenib plus control antibody
smiles,measurement,setting,value
"CNC(=O)c1cc(Oc2ccc(NC(=O)Nc3ccc(Cl)c(C(F)(F)F)c3)c(F)c2)ccn1 [Regorafenib, 4{4-[3-(4-chloro-3-trifluoromethylphenyl)-ureido]-3-fluorophenoxy}-pyridine-2-carboxylic acid methylamide]",# of animals with mets,CT26 syngeneic tumors; [1],0
same,% animals wirth mets,CT26 syngeneic tumors; [1],0%
same,# of animals with mets,CT26 syngeneic tumors; [2],8
same,% animals wirth mets,CT26 syngeneic tumors; [2],100%
same,T/C (area),"MC38 syngeneic tumors; regimen a): regorafenib 3 mg/kg po once daily for 15 days plus isotype control 10 mg/kg ip, tumor area vs vehicle",0.68
same,T/C (weight),"MC38 syngeneic tumors; regimen a): regorafenib 3 mg/kg po once daily for 15 days plus isotype control 10 mg/kg ip, tumor weight at study end vs vehicle",0.64
same,growth of MC38 tumors vs control,MC38 syngeneic tumors; single agents,inhibited the growth of MC38 tumors vs control

# Source: patent US11517622B2, “Combination of regorafenib and PD-1/PD-L1(2) inhibitors for treating cancer” (BAYER AKTIENGESELLSCHAFT, priority 2017, dated 2022)
